Reference: BindingDB's records for patent US11839613 (Idorsia Pharmaceuticals, 2023)
pIC50: −log10 of the molar value.

Each compound was assayed against Prostaglandin E2 receptor EP4 subtype (Homo sapiens, UniProt P35408) (assay: hEP4 cAMP Assay).
Sequence of Prostaglandin E2 receptor EP4 subtype (P35408 whole entry): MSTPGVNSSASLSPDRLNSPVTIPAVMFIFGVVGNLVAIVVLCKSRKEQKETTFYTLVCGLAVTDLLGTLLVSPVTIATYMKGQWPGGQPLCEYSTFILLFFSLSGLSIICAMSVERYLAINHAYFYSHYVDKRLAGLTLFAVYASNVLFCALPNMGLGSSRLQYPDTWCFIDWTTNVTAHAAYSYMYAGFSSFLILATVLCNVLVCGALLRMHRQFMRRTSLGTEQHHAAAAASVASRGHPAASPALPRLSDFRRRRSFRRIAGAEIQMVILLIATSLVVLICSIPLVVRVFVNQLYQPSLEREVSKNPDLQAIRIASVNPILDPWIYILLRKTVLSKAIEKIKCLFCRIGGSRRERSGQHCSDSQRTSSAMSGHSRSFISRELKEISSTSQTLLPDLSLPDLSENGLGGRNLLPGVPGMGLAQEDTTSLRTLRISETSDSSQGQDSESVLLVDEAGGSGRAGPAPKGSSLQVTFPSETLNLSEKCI
Experimental: Cells are counted washed and resuspended in assay buffer (AB; HBSS, 20 mM HEPES, 0.2% BSA; 2 mM IBMX). […] Plate is pre-incubated 45 minutes at RT. Subsequently, 2.5 microliters of PGE2 (final conc. 6 nM) are transferred into the assay plate. Plate is incubated 30 minutes at RT. […] For each compound concentration the percentage of cAMP compared to DMSO control value as average ±STDEV (each concentration is measured in duplicate) is calculated.

SMILES	pIC50
CCOc1cc(-c2cc(NCCc3cc4ccsc4cc3OC)ncn2)cc(F)c1CC(=O)O [US11839613, Example 371]	7.17
CCOc1cc(-c2cc(NCCc3c(OC)cc4ccccc4c3C)ncn2)cc(F)c1CC(=O)O [US11839613, Example 374]	7.35
CCOc1cc(-c2cc(NCCc3ccc4sccc4c3F)ncn2)cc(F)c1CC(=O)O [US11839613, Example 375]	7.18
CCOc1cc(-c2cc(NCCc3ccc4ccsc4c3C)ncn2)sc1C(=O)O [US11839613, Example 376]	7.96
CCCc1cc(-c2cc(NCCc3cc4ccsc4cc3OC)ncn2)ccc1C(=O)O [US11839613, Example 377]	7.04
CCCc1cc(-c2cc(NCCc3ccc4sccc4c3F)ncn2)ccc1C(=O)O [US11839613, Example 378]	7.18
CCCc1cc(-c2cc(NCCc3cc4c(cc3OC)OCCO4)ncn2)ccc1C(=O)O [US11839613, Example 379]	6.61
CCCc1cc(-c2cc(NCCc3c(OC)cc4ccccc4c3C)ncn2)ccc1C(=O)O [US11839613, Example 380]	7.27
COc1cc2sccc2cc1CCNc1cc(-c2ccc(CC(=O)O)c(OC)c2)ncn1 [US11839613, Example 381]	6.92
COc1cc(-c2cc(NCCc3ccc4sccc4c3F)ncn2)ccc1CC(=O)O [US11839613, Example 382]	6.65
COc1cc2c(cc1CCNc1cc(-c3ccc(CC(=O)O)c(OC)c3)ncn1)OCCO2 [US11839613, Example 383]	6.57
COc1cc(-c2cc(NCCc3c(OC)cc4ccccc4c3C)ncn2)ccc1CC(=O)O [US11839613, Example 384]	7.23
CCCc1cc(-c2cc(NCCc3c(OC)cc4ccccc4c3C)ncn2)ccc1CC(=O)O [US11839613, Example 388]	7.29
CCCc1cc(-c2cc(NCCc3cc(F)c4sccc4c3)ncn2)ccc1C(=O)O [US11839613, Example 389]	7.24
CCOc1cc(-c2cc(NCCc3cc(C)c4sccc4c3)ncn2)sc1C(=O)O [US11839613, Example 391]	8.22
CCCOc1cc(-c2cc(NCCc3cc4ccsc4cc3OC)ncn2)ccc1CC(=O)O [US11839613, Example 392]	6.95
CCCOc1cc(-c2cc(NCCc3ccc4sccc4c3F)ncn2)ccc1CC(=O)O [US11839613, Example 393]	7.09
COc1cc2c(c(C)c1CCNc1cc(-c3ccc(C(=O)O)c(OC4CCC4)c3)ncn1)OCCO2 [US11839613, Example 396]	7.70
CCOc1cc(-c2cc(NCCc3c(OC)cc4c(c3C)OCCO4)ncn2)ccc1CC(=O)O [US11839613, Example 399]	7.32
CCCc1cc(-c2cc(NCCc3cc4c(cc3OCC)OCCO4)ncn2)ccc1CC(=O)O [US11839613, Example 402]	6.88
CCOc1cc2c(cc1CCNc1cc(-c3cc(F)c(CC(=O)O)c(OCC)c3)ncn1)OCCO2 [US11839613, Example 403]	6.95
CCOc1cc(-c2cc(NCCc3cc4ccsc4c(F)c3OC)ncn2)ccc1C(=O)O [US11839613, Example 404]	7.15
COc1c(CCNc2cc(-c3ccc(C(=O)O)c(SC)c3)ncn2)cc2ccsc2c1F [US11839613, Example 405]	7.74
CCOc1cc(-c2cc(NCCc3cc4ccsc4c(F)c3OC)ncn2)ccc1CC(=O)O [US11839613, Example 406]	7.00
CCCc1cc(-c2cc(NCCc3c(OC)cc4c(c3F)OCCO4)ncn2)ccc1CC(=O)O [US11839613, Example 408]	7.70
CC(C)Cc1cc(-c2cc(NCCc3ccc4sccc4c3F)ncn2)ccc1CC(=O)O [US11839613, Example 409]	7.06
COc1c(CCNc2cc(-c3ccc(CC(=O)O)c(CC(C)C)c3)ncn2)cc2ccsc2c1F [US11839613, Example 410]	6.77

Each compound was assayed against Prostaglandin E2 receptor EP2 subtype (Homo sapiens, UniProt P43116) (assay: hEP2 cAMP Assay).
Sequence of Prostaglandin E2 receptor EP2 subtype (P43116 whole entry): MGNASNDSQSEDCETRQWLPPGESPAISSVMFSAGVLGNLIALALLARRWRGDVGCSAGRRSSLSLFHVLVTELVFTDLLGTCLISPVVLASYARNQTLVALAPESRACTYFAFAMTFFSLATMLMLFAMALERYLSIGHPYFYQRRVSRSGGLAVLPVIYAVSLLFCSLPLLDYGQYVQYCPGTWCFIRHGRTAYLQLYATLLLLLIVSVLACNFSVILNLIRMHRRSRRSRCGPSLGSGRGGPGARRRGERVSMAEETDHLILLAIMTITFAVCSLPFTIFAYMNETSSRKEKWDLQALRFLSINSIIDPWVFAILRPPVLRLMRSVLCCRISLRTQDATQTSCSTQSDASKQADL
Experimental: Cells are counted washed and resuspended in assay buffer (AB; HBSS, 20 mM HEPES, 0.2% BSA; 2 mM IBMX). […] Plate is pre-incubated 45 minutes at RT. […] Plate is incubated 30 minutes at RT.

SMILES	pIC50
CCOc1cc(-c2cc(NCCc3cc4ccsc4cc3OC)ncn2)cc(F)c1CC(=O)O [US11839613, Example 371]	7.32
CCOc1cc(-c2cc(NCCc3c(OC)cc4ccccc4c3C)ncn2)cc(F)c1CC(=O)O [US11839613, Example 374]	6.52
CCOc1cc(-c2cc(NCCc3ccc4sccc4c3F)ncn2)cc(F)c1CC(=O)O [US11839613, Example 375]	6.53
CCOc1cc(-c2cc(NCCc3ccc4ccsc4c3C)ncn2)sc1C(=O)O [US11839613, Example 376]	6.73
CCCc1cc(-c2cc(NCCc3cc4ccsc4cc3OC)ncn2)ccc1C(=O)O [US11839613, Example 377]	7.57
CCCc1cc(-c2cc(NCCc3ccc4sccc4c3F)ncn2)ccc1C(=O)O [US11839613, Example 378]	6.96
CCCc1cc(-c2cc(NCCc3cc4c(cc3OC)OCCO4)ncn2)ccc1C(=O)O [US11839613, Example 379]	7.06
CCCc1cc(-c2cc(NCCc3c(OC)cc4ccccc4c3C)ncn2)ccc1C(=O)O [US11839613, Example 380]	6.91
COc1cc2sccc2cc1CCNc1cc(-c2ccc(CC(=O)O)c(OC)c2)ncn1 [US11839613, Example 381]	6.78
COc1cc(-c2cc(NCCc3ccc4sccc4c3F)ncn2)ccc1CC(=O)O [US11839613, Example 382]	6.17
COc1cc2c(cc1CCNc1cc(-c3ccc(CC(=O)O)c(OC)c3)ncn1)OCCO2 [US11839613, Example 383]	6.19
COc1cc(-c2cc(NCCc3c(OC)cc4ccccc4c3C)ncn2)ccc1CC(=O)O [US11839613, Example 384]	6.24
CCCc1cc(-c2cc(NCCc3c(OC)cc4ccccc4c3C)ncn2)ccc1CC(=O)O [US11839613, Example 388]	6.20
CCCc1cc(-c2cc(NCCc3cc(F)c4sccc4c3)ncn2)ccc1C(=O)O [US11839613, Example 389]	6.64
CCOc1cc(-c2cc(NCCc3cc(C)c4sccc4c3)ncn2)sc1C(=O)O [US11839613, Example 391]	6.61
CCCOc1cc(-c2cc(NCCc3cc4ccsc4cc3OC)ncn2)ccc1CC(=O)O [US11839613, Example 392]	6.81
CCCOc1cc(-c2cc(NCCc3ccc4sccc4c3F)ncn2)ccc1CC(=O)O [US11839613, Example 393]	6.36
COc1cc2c(c(C)c1CCNc1cc(-c3ccc(C(=O)O)c(OC4CCC4)c3)ncn1)OCCO2 [US11839613, Example 396]	9.00
CCOc1cc(-c2cc(NCCc3c(OC)cc4c(c3C)OCCO4)ncn2)ccc1CC(=O)O [US11839613, Example 399]	7.40
CCCc1cc(-c2cc(NCCc3cc4c(cc3OCC)OCCO4)ncn2)ccc1CC(=O)O [US11839613, Example 402]	7.32
CCOc1cc2c(cc1CCNc1cc(-c3cc(F)c(CC(=O)O)c(OCC)c3)ncn1)OCCO2 [US11839613, Example 403]	6.87
CCOc1cc(-c2cc(NCCc3cc4ccsc4c(F)c3OC)ncn2)ccc1C(=O)O [US11839613, Example 404]	7.57
COc1c(CCNc2cc(-c3ccc(C(=O)O)c(SC)c3)ncn2)cc2ccsc2c1F [US11839613, Example 405]	8.15
CCOc1cc(-c2cc(NCCc3cc4ccsc4c(F)c3OC)ncn2)ccc1CC(=O)O [US11839613, Example 406]	6.66
CCCc1cc(-c2cc(NCCc3c(OC)cc4c(c3F)OCCO4)ncn2)ccc1CC(=O)O [US11839613, Example 408]	6.90
CC(C)Cc1cc(-c2cc(NCCc3ccc4sccc4c3F)ncn2)ccc1CC(=O)O [US11839613, Example 409]	6.31
COc1c(CCNc2cc(-c3ccc(CC(=O)O)c(CC(C)C)c3)ncn2)cc2ccsc2c1F [US11839613, Example 410]	6.18
